Experimental data reported in patent US20250032454A1, “KDM1A INHIBITORS FOR THE TREATMENT OF DISEASE” (Imago Biosciences, Inc., priority 2021, published 2025).
Where two headings read alike, the source gives them in different places.

Experiments:
LSD1 = LSD1 (Homo sapiens, UniProt O60341); experiment: LSD1 fluorescence coupling enzyme assay (HRP/Amplex Red, H3(1-21)K4me2 peptide), 10-dose IC50; format: biochemical; settings: 10 μM histone H3(1-21)K4me2 peptide substrate, 3-fold serial dilution from 100 μM
Outline: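 Fluorescence coupled assay: LSD1 demethylation of 10 μM H3(1-21)K4me2 peptide produces FAD-dependent H2O2, detected via HRP/Amplex Red as resorufin (Ex/Em 535/590 nm). IC50 from 10 doses, 3-fold serial dilution from 100 μM, in duplicate.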

MV4;11 cells = experiment: Cell Titer-Glo cell growth inhibition in MV4;11 cell line (Day 5 / Day 10); format: cell-based; settings: Homo sapiens
Outline: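 Cells seeded at 3750/well and treated with a 10-point, 4-fold dose curve from 0 to 50 µM; ATP-based luminescence viability read at Day 5. A portion is reseeded into fresh compound and media for 5 more days, read at Day 10; IC50 derived from luminescence.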

[1] = MV4-11, 120 h, Day 5, read-out: Cell Titer-Glo IC50 (5 d)
[2] = MV4-11, 240 h, Day 10, read-out: Cell Titer-Glo IC50 (10 d)

Compound	IC50 (LSD1)	IC50 (MV4;11 cells; [1])	IC50 (MV4;11 cells; [2])	IC50 (MV4;11 cells; 120 h, Day 5, read-out: Cell Titer-Glo IC50 (5 d))	IC50 (MV4;11 cells; 240 h, Day 10, read-out: Cell Titer-Glo IC50 (10 d))
Cn1nc2ccc(-n3nc(NC[C@@H]4CCC[C@@H](N)C4)cc3-c3ccc(C#N)c(F)c3)cc2c1Cl [Example 14RR, 4-(3-((((1R,3R)-3-aminocyclohexyl)methyl)amino)-1-(3-chloro-2-methyl-2H-indazol-5-yl)-1H-pyrazol-5-yl)-2-fluorobenzonitrile]	< 500 nM	< 500 nM	< 500 nM	–	–
Cn1nc2ccc(-n3nc(NC[C@H]4CCC[C@H](N)C4)cc3-c3ccc(C#N)c(F)c3)cc2c1Cl [Example 14SS, 4-(3-((((1S,3S)-3-aminocyclohexyl)methyl)amino)-1-(3-chloro-2-methyl-2H-indazol-5-yl)-1H-pyrazol-5-yl)-2-fluorobenzonitrile]	< 500 nM	–	< 500 nM	–	–
N#Cc1ccc(-c2cc(NC[C@H]3CCC[C@H](N)C3)nn2-c2ccc3c(cnn3-c3ccccc3)c2)cc1F [Example 15, 4-(3-((((1S,3S)-3-aminocyclohexyl)methyl)amino)-1-(1-phenyl-1H-indazol-5-yl)-1H-pyrazol-5-yl)-2-fluorobenzonitrile]	< 500 nM	< 500 nM	< 500 nM	–	–
N#Cc1ccc(-c2cc(NC[C@H]3CCC[C@H](N)C3)nn2-c2ccc3nn(-c4ccccc4)cc3c2)cc1F [Example 16, 4-(3-((((1S,3S)-3-aminocyclohexyl)methyl)amino)-1-(2-phenyl-2H-indazol-5-yl)-1H-pyrazol-5-yl)-2-fluorobenzonitrile]	< 500 nM	< 500 nM	< 500 nM	–	–
N#Cc1ccc(-c2cc(NC[C@H]3CCC[C@H](N)C3)nn2-c2ccncc2)cc1F [Example 17, 4-(3-((((1S,3S)-3-aminocyclohexyl)methyl)amino)-1-(pyridin-4-yl)-1H-pyrazol-5-yl)-2-fluorobenzonitrile]	> 10000 nM	1000 to 10000 nM	1000 to 10000 nM	–	–
COc1ccc(-n2nc(NC[C@H]3CCC[C@H](N)C3)cc2-c2ccc(C(F)(F)F)c(F)c2)cc1 [Example 18, N-(((1S,3S)-3-aminocyclohexyl)methyl)-5-(3-fluoro-4-(trifluoromethyl)phenyl)-1-(4-methoxyphenyl)-1H-pyrazol-3-amine]	1000 to 10000 nM	500 to 1000 nM	500 to 1000 nM	–	–
N#Cc1ccc(-c2cc(NC[C@H]3CCC[C@H](N)C3)nn2-c2ccc(N3CCCC3)cc2)cc1F [Example 19, 4-(3-((((1S,3S)-3-aminocyclohexyl)methyl)amino)-1-(4-(pyrrolidin-1-yl)phenyl)-1H-pyrazol-5-yl)-2-fluorobenzonitrile]	< 500 nM	< 500 nM	< 500 nM	–	–
CO[C@H]1CCN(c2ccc(-n3nc(NC[C@H]4CCC[C@H](N)C4)cc3-c3ccc(C#N)c(F)c3)c(F)c2)C1 [Example 20, 4-(3-((((1S,3S)-3-aminocyclohexyl)methyl)amino)-1-(2-fluoro-4-((S)-3-methoxypyrrolidin-1-yl)phenyl)-1H-pyrazol-5-yl)-2-fluorobenzonitrile]	< 500 nM	–	< 500 nM	–	–
Cn1cc2cc(-n3nc(NC[C@@H]4CCNC4)cc3-c3ccc(C#N)c(F)c3)ccc2n1 [Example 21R, (R)-2-fluoro-4-(1-(2-methyl-2H-indazol-5-yl)-3-((pyrrolidin-3-ylmethyl)amino)-1H-pyrazol-5-yl)benzonitrile]	500 to 1000 nM	500 to 1000 nM	–	–	–
Cn1cc2cc(-n3nc(NC[C@H]4CCNC4)cc3-c3ccc(C#N)c(F)c3)ccc2n1 [Example 21S, (S)-2-fluoro-4-(1-(2-methyl-2H-indazol-5-yl)-3-((pyrrolidin-3-ylmethyl)amino)-1H-pyrazol-5-yl)benzonitrile]	< 500 nM	< 500 nM	–	–	–
COc1ccc(-n2nc(NCC3CCCNCC3)cc2-c2ccc(C#N)c(F)c2)cc1 (stereo not shown) [Example 22, 4-(3-((azepan-4-ylmethyl)amino)-1-(4-methoxyphenyl)-1H-pyrazol-5-yl)-2-fluorobenzonitrile]	< 500 nM	1000 to 10000 nM	< 500 nM	–	–
Cn1ncc2cc(-n3nc(NCC45CCN(CC4)CC5)cc3-c3ccc(C#N)c(F)c3)ccc21 [Example 23, 2-fluoro-4-(1-(1-methyl-1H-indazol-5-yl)-3-((quinuclidin-4-ylmethyl)amino)-1H-pyrazol-5-yl)benzonitrile]	< 500 nM	–	–	< 500 nM	< 500 nM
N#Cc1ccc(-c2cc(NCC3CCCNCC3)nn2-c2ccc(N3CCCC3)cc2)cc1F (stereo not shown) [Example 24, 4-(3-((azepan-4-ylmethyl)amino)-1-(4-(pyrrolidin-1-yl)phenyl)-1H-pyrazol-5-yl)-2-fluorobenzonitrile]	< 500 nM	< 500 nM	< 500 nM	–	–
N#Cc1ccc(-c2cc(NCC3CCCNCC3)nn2-c2ccc(C(=O)N3CCCC3)cc2)cc1F (stereo not shown) [Example 25, 4-(3-((azepan-4-ylmethyl)amino)-1-(4-(pyrrolidine-1-carbonyl)phenyl)-1H-pyrazol-5-yl)-2-fluorobenzonitrile]	1000 to 10000 nM	500 to 1000 nM	< 500 nM	–	–
N#Cc1ccc(-c2cc(NCC3CCCNCC3)nn2-c2ccc(N3CCS(=O)(=O)CC3)cc2)cc1F (stereo not shown) [Example 26, 4-(3-((azepan-4-ylmethyl)amino)-1-(4-(1,1-dioxidothiomorpholino)-phenyl)-1H-pyrazol-5-yl)-2-fluorobenzonitrile]	< 500 nM	< 500 nM	< 500 nM	–	–
N#Cc1ccc(-c2cc(NCC3CCCNCC3)nn2-c2ccc(N3CCN(CCO)CC3)cc2)cc1F (stereo not shown) [Example 27, 4-(3-((azepan-4-ylmethyl)amino)-1-(4-(4-(2-hydroxyethyl)piperazin-1-yl)phenyl)-1H-pyrazol-5-yl)-2-fluorobenzonitrile]	< 500 nM	< 500 nM	< 500 nM	–	–
COc1ccc(-n2nc(NCC3CCCC(CN)C3)cc2-c2ccc(C#N)c(F)c2)cc1 (stereo not shown) [Example 28, 4-(3-(((-3-(aminomethyl)cyclohexyl)methyl)amino)-1-(4-methoxyphenyl)-1H-pyrazol-5-yl)-2-fluorobenzonitrile]	500 to 1000 nM	1000 to 10000 nM	1000 to 10000 nM	–	–
Cn1cc2cc(-n3nc(NC[C@@H]4CCC[C@@H](N)C4)c(Cl)c3-c3ccc(C#N)c(F)c3)ccc2n1 [Example 36, 4-(3-((((1R,3R)-3-aminocyclohexyl)methyl)amino)-4-chloro-1-(2-methyl-2H-indazol-5-yl)-1H-pyrazol-5-yl)-2-fluorobenzonitrile]	1000 to 10000 nM	500 to 1000 nM	< 500 nM	–	–
Cn1cc2cc(-n3nc(NC[C@H]4CCC[C@H](N)C4)c(Cl)c3-c3ccc(C#N)c(F)c3)ccc2n1 [Example 37, 4-(3-((((1S,3S)-3-aminocyclohexyl)methyl)amino)-4-chloro-1-(2-methyl-2H-indazol-5-yl)-1H-pyrazol-5-yl)-2-fluorobenzonitrile]	< 500 nM	< 500 nM	< 500 nM	–	–
COc1ccc(-n2nc(NCc3cccc(N)c3)cc2-c2ccc(C#N)c(F)c2)cc1 [Example 40, 4-(3-((3-aminobenzyl)amino)-1-(4-methoxyphenyl)-1H-pyrazol-5-yl)-2-fluorobenzonitrile]	1000 to 10000 nM	–	> 10000 nM	–	–
COc1ccc(-n2nc(NC[C@H]3C[C@@H](N)C3)cc2-c2ccc(C#N)c(F)c2)cc1 [Example 41, 4-(3-((((1s,3s)-3-aminocyclobutyl)methyl)amino)-1-(4-methoxyphenyl)-1H-pyrazol-5-yl)-2-fluorobenzonitrile]	< 500 nM	< 500 nM	< 500 nM	–	–
